Patent US20200360477A1, “INHALABLE FORMULATIONS FOR KINASE INHIBITION” (Aerovate Therapeutics, Inc., priority 2019, published 2020)
Where two headings read alike, the source gives them in different places. Values belong to the compound of their own block, whether it stands above or below them.

Tests used:
HCK = HCK (Homo sapiens, UniProt P08631); experiment: KINOMEscan competition binding assay
DDR1 = DDR1 (Homo sapiens, UniProt Q08345); experiment: KINOMEscan competition binding assay
SRC = SRC (Homo sapiens, UniProt P12931); experiment: KINOMEscan competition binding assay
ABL-1-nonphosphorolated [1] = biological target: T1, ABL-1-nonphosphorolated (Homo sapiens, UniProt P00519); conditions: ABL1
FRK = FRK (Homo sapiens, UniProt P42685); experiment: KINOMEscan competition binding assay
FLT4 = FLT4 (Homo sapiens, UniProt P35916); experiment: KINOMEscan competition binding assay
ABL-1-nonphosphorolated [2] = biological target: T1, ABL-1-nonphosphorolated; experiment: biochemical; conditions: read-out: Compound Activity Remaining at 1 μM (%)
LCK = LCK (Homo sapiens, UniProt P06239); experiment: KINOMEscan competition binding assay
FYN = FYN (Homo sapiens, UniProt P06241); experiment: KINOMEscan competition binding assay
FGR = biological target: T2, FGR (Homo sapiens, UniProt P09769); experiment: KINOMEscan competition binding assay
T2 construct: purchased Eurofins DiscoverX Corporation (KINOMEscan); host or cells: E. coli BL21-derived host (T7 phage) or HEK-293
Procedure: (§1) The ligand-bound beads were blocked with excess biotin and washed with blocking buffer (SeaBlock (Pierce), 1% BSA, 0.05% Tween 20, 1 mM DTT) to remove unbound ligand and to reduce nonspecific binding. […] Kds were determined using an 11-point 3-fold compound dilution series with three DMSO control points.
(§2) Each was a final volume of 0.02 ml.

PDGFR-β = biological target: T3, PDGFR-β (Homo sapiens, UniProt P09619); experiment: KINOMEscan competition binding assay
T3 construct: purchased Eurofins DiscoverX Corporation (KINOMEscan); host or cells: E. coli BL21-derived host (T7 phage) or HEK-293
Procedure: as §1, §2

VEGFR2 = biological target: T4, VEGFR2 (Homo sapiens, UniProt P35968); experiment: KINOMEscan competition binding assay
T4 construct: purchased Eurofins DiscoverX Corporation (KINOMEscan); host or cells: E. coli BL21-derived host (T7 phage) or HEK-293
Procedure: as §1, §2

DDR2 = biological target: T5, DDR2 (Homo sapiens, UniProt Q16832); experiment: KINOMEscan competition binding assay
T5 construct: purchased Eurofins DiscoverX Corporation (KINOMEscan); host or cells: E. coli BL21-derived host (T7 phage) or HEK-293
T5 sequence (Q16832 22-855): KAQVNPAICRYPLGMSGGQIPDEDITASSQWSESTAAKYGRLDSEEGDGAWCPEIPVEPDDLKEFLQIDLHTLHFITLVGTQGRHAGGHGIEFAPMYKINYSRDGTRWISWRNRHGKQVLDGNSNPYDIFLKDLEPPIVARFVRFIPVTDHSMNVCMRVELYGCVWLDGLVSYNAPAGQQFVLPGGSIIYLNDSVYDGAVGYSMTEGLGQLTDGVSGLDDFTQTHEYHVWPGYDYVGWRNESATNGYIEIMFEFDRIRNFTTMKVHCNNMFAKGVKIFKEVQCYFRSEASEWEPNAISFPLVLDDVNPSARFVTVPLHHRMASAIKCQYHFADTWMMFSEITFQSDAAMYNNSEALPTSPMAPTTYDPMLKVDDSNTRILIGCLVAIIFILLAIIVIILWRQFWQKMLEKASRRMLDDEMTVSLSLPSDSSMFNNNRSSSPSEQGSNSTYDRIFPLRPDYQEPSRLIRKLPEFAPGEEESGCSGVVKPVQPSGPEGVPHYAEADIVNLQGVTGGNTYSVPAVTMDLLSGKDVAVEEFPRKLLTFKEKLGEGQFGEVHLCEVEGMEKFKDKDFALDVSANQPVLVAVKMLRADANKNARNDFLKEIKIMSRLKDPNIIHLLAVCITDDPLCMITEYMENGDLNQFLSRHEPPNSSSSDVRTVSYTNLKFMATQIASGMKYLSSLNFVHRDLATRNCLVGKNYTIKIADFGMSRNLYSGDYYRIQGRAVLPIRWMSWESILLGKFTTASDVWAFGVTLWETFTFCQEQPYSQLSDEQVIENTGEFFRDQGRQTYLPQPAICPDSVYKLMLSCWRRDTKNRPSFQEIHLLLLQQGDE
Procedure: as §1, §2

LYN = biological target: T6, LYN (Homo sapiens, UniProt P07948); experiment: KINOMEscan competition binding assay
T6 construct: purchased Eurofins DiscoverX Corporation (KINOMEscan); host or cells: E. coli BL21-derived host (T7 phage) or HEK-293
Procedure: as §1, §2

PIK4CB = biological target: T7, PIK4CB (Homo sapiens, UniProt Q9UBF8); experiment: KINOMEscan competition binding assay
T7 construct: purchased Eurofins DiscoverX Corporation (KINOMEscan); host or cells: E. coli BL21-derived host (T7 phage) or HEK-293
Procedure: as §1, §2

RET = biological target: T8, RET (Homo sapiens, UniProt P07949); experiment: KINOMEscan competition binding assay
T8 construct: purchased Eurofins DiscoverX Corporation (KINOMEscan); host or cells: E. coli BL21-derived host (T7 phage) or HEK-293
Procedure: as §1, §2

PDGFR-α = biological target: T9, PDGFR-α (Homo sapiens, UniProt P16234); experiment: KINOMEscan competition binding assay
T9 construct: purchased Eurofins DiscoverX Corporation (KINOMEscan); host or cells: E. coli BL21-derived host (T7 phage) or HEK-293
Procedure: as §1, §2

CSF1R = CSF1R (Homo sapiens, UniProt P07333); experiment: biochemical
KIT = KIT (Homo sapiens, UniProt P10721); experiment: KINOMEscan competition binding assay
[3] = biological target: T10, phosphatidylinositol 5-phosphate 4-kinase type-2 gamma (PI42C) (Homo sapiens, UniProt Q8TBX8); experiment: KINOMEscan competition binding assay
T10 construct: purchased Eurofins DiscoverX Corporation (KINOMEscan); host or cells: E. coli BL21-derived host (T7 phage) or HEK-293
T10 sequence (Q8TBX8 1-421): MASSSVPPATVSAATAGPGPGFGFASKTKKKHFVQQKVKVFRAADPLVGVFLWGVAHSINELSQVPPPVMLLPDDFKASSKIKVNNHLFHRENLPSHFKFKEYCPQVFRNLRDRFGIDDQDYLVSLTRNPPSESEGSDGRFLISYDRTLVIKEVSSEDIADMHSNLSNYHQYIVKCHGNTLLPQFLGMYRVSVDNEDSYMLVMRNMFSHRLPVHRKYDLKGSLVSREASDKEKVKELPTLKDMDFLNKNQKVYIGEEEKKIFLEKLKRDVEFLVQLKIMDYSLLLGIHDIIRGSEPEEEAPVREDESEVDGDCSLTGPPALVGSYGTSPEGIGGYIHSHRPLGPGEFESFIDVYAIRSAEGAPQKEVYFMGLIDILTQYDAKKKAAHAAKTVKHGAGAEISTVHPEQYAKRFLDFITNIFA
Procedure: The ligand-bound beads were blocked with excess biotin and washed with blocking buffer (SeaBlock (Pierce), 1% BSA, 0.05% Tween 20, 1 mM DTT) to remove unbound ligand and to reduce nonspecific binding. […] Test compounds were prepared as 111× stocks in 100% DMSO. Kds were determined using an 11-point 3-fold compound dilution series with three DMSO control points.
as §2

[4] = read-out: Compound Activity Remaining at 1 μM (%)

Chain of KIT (P10721 26-976): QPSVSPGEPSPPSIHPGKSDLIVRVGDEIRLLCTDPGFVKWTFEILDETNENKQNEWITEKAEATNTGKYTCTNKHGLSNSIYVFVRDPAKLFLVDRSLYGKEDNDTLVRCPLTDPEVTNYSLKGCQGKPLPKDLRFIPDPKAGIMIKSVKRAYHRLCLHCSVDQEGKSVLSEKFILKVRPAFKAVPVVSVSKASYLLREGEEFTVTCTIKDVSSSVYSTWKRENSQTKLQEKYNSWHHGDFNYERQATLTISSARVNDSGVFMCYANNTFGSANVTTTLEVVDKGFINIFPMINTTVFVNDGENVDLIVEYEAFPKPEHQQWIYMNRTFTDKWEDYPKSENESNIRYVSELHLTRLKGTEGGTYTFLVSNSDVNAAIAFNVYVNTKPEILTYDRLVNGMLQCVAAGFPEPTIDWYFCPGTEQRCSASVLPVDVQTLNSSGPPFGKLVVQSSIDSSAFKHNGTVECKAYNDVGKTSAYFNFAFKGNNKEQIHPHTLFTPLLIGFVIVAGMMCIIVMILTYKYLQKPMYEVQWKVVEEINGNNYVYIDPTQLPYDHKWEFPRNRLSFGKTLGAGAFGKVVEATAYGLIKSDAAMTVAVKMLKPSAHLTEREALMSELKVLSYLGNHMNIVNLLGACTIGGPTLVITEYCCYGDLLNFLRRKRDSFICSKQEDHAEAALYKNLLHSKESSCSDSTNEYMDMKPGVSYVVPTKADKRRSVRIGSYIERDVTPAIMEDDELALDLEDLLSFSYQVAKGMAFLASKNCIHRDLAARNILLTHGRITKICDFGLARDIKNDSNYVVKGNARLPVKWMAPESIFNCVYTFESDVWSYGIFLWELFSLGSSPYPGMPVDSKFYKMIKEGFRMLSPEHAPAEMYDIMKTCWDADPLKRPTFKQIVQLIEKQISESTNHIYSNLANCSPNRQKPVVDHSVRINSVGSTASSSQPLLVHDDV
T9 sequence (P16234 24-1089): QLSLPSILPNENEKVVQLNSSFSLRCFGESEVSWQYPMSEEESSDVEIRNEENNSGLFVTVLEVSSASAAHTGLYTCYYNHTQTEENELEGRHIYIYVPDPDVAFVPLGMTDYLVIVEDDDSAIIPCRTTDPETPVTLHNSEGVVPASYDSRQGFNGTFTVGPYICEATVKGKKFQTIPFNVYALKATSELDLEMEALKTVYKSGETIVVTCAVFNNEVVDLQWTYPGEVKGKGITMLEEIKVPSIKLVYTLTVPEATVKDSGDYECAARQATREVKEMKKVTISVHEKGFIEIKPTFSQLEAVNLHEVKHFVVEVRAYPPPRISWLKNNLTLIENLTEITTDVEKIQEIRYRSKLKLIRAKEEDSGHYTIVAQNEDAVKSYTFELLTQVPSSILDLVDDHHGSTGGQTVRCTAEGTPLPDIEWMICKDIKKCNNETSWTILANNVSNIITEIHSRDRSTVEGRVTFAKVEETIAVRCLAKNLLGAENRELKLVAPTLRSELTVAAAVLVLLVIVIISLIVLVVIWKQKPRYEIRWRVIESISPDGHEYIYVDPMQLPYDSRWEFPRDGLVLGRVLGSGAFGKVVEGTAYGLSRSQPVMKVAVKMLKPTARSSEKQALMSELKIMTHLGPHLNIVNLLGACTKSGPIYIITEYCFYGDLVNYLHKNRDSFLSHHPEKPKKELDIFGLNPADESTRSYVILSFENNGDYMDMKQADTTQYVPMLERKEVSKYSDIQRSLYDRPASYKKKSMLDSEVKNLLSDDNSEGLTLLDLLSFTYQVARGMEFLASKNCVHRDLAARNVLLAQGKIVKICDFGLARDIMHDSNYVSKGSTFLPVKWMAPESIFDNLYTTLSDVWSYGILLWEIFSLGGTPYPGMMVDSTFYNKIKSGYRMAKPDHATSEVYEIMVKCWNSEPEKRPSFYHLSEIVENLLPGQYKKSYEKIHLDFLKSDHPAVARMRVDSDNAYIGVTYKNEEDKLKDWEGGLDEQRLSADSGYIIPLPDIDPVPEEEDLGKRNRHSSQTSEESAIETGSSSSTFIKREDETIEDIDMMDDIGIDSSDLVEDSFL
T3 sequence (P09619 33-1106): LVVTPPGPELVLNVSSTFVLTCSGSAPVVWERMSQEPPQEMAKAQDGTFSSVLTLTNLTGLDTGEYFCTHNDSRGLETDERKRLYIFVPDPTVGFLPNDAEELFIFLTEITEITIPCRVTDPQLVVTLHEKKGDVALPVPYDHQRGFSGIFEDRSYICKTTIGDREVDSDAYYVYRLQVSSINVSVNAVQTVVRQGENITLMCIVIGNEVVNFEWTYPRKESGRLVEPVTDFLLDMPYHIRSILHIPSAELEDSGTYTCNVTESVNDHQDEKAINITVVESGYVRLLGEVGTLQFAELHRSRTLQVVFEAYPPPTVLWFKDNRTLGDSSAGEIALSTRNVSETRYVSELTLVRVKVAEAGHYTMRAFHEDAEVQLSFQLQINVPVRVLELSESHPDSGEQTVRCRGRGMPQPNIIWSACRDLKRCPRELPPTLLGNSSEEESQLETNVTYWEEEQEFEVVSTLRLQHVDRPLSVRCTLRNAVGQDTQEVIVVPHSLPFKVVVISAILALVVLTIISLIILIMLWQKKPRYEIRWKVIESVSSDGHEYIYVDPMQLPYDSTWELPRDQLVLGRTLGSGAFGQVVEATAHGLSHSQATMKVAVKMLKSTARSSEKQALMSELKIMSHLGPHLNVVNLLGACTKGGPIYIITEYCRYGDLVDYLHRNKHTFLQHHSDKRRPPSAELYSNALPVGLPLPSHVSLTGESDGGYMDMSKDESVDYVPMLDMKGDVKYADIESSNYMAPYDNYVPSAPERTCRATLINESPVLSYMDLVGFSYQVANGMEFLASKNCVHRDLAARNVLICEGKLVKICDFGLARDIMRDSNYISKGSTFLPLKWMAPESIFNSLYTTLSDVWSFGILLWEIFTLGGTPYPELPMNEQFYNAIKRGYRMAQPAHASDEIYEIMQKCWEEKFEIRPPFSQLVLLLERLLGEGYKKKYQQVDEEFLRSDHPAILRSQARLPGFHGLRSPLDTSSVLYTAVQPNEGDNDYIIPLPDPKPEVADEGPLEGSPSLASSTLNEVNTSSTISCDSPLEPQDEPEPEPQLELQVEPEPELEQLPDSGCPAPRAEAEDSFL
T7 sequence (Q9UBF8 whole entry): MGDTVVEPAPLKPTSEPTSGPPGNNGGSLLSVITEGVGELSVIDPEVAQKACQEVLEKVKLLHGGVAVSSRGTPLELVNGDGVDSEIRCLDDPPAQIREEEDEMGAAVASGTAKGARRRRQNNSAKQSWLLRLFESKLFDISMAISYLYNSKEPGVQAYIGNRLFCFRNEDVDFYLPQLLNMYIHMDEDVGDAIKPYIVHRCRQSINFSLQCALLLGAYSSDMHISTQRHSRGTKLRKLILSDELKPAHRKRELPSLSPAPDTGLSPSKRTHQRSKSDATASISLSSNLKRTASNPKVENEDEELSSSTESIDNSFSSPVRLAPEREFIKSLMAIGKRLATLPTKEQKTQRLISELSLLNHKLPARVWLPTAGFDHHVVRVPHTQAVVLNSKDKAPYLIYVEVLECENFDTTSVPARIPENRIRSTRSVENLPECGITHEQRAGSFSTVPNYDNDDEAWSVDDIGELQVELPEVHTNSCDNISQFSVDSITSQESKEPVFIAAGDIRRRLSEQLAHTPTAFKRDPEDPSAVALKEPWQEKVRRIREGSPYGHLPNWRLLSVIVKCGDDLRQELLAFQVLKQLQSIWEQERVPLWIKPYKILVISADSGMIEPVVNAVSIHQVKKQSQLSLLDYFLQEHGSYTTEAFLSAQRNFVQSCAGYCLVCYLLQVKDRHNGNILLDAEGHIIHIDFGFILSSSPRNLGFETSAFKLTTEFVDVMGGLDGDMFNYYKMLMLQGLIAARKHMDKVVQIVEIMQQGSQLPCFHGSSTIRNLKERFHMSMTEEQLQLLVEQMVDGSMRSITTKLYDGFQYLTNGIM
T8 sequence (P07949 29-1114): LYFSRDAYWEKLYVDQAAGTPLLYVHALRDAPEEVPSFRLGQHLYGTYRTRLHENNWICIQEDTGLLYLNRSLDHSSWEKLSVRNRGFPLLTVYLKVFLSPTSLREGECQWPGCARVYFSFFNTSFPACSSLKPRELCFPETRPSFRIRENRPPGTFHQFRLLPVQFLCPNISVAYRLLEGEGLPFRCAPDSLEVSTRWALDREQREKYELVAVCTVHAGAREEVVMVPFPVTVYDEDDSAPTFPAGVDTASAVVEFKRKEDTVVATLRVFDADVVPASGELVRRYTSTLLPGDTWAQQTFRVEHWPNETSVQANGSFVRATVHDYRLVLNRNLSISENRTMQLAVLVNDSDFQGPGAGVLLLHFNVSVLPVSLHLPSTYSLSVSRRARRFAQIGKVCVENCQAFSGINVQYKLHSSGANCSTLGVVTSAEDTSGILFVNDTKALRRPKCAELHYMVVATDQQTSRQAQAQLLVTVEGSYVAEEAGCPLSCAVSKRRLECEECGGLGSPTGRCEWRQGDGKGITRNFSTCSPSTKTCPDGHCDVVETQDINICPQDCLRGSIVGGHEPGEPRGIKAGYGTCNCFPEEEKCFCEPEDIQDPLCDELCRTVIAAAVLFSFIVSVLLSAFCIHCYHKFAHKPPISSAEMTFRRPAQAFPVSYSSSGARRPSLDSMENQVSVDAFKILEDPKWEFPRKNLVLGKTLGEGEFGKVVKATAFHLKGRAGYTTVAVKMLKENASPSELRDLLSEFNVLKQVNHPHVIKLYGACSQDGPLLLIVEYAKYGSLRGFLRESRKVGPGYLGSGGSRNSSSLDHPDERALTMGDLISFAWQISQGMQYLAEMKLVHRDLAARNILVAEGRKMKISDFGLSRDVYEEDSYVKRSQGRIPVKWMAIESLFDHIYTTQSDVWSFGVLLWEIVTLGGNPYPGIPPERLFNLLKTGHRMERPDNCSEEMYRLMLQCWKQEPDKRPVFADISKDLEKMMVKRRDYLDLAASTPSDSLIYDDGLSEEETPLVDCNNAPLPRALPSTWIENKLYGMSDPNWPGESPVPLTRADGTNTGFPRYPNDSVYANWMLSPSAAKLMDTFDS

Kd (HCK): 36 nM | remaining binding at 1 µM (HCK; [4]): 3.3% | Kd (DDR1): 3.5 nM | remaining binding at 1 µM (DDR1; [4]): 0.2% | Kd (SRC): 130 nM | remaining binding at 1 µM (SRC; [4]): 6.4% | kinase found to be inhibited (ABL-1-nonphosphorolated [1]): inhibited | Kd (FRK): 11 nM | remaining binding at 1 µM (FRK; [4]): 5.3% | Kd (FLT4): 18 nM | remaining binding at 1 µM (FLT4; [4]): 12% | remaining activity at 1 µM (ABL-1-nonphosphorolated [2]): 3.3% | Kd (LCK): 22 nM | remaining binding at 1 µM (LCK; [4]): 1.1% | Kd (FYN): 55 nM | remaining binding at 1 µM (FYN; [4]): 9.7% | Kd (FGR): 92 nM | remaining binding at 1 µM (FGR; 1 μM compound): 21% | Kd (PDGFR-β): 0.82 nM | remaining binding at 1 µM (PDGFR-β; 1 μM compound): 0% | Kd (VEGFR2): 15 nM | remaining binding at 1 µM (VEGFR2; 1 μM compound): 0.25% | Kd (DDR2): 19 nM | remaining binding at 1 µM (DDR2; 1 μM compound): 1.8% | Kd (LYN): 24 nM | remaining binding at 1 µM (LYN; 1 μM compound): 7.3% | Kd (PIK4CB): 150 nM | remaining binding at 1 µM (PIK4CB; 1 μM compound): 3.8% | Kd (RET): 19 nM | remaining binding at 1 µM (RET; 1 μM compound): 3.9% | Kd (PDGFR-α): 4 nM | remaining binding at 1 µM (PDGFR-α; 1 μM compound): 0.35% | Kd (CSF1R): 6.1 nM | remaining activity at 1 µM (CSF1R; [4]): 0.7% | Kd (KIT): 4.7 nM | remaining binding at 1 µM (KIT; [4]): 0%
Compound: COc1ccc(-c2cncc(N[C@@H](C)c3cccc(NC(=O)c4cncc(C)c4)c3)n2)cc1OC [Compound B]

Compound: imatinib [Compound A, reference compound]
Kd (FLT4; FLT4): > 10000 nM | Compound Activity Remaining at 1 μM (%) (FLT4; FLT4, 1 μM compound): 87% | Compound Activity Remaining at 1 μM (%) (FGR; 1 μM compound): 70% | Compound Activity Remaining at 1 μM (%) (PDGFR-β; 1 μM compound): 0.15% | Compound Activity Remaining at 1 μM (%) (VEGFR2; 1 μM compound): 70% | Compound Activity Remaining at 1 μM (%) (DDR2; 1 μM compound): 0.8% | Compound Activity Remaining at 1 μM (%) (LYN; 1 μM compound): 30% | Compound Activity Remaining at 1 μM (%) (PIK4CB; 1 μM compound): 59% | Kd (RET): > 10000 nM | Compound Activity Remaining at 1 μM (%) (RET; 1 μM compound): 98% | Compound Activity Remaining at 1 μM (%) (PDGFR-α; 1 μM compound): 0.95% | kinase found to be inhibited [3]: inhibited | Compound Activity Remaining at 1 μM (%) (KIT; KIT, 1 μM compound): 0.5%
